Measured values as given in ChEMBL document CHEMBL1201862, “PubChem BioAssay data set” (2004).
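Cells were grown in 96-well plates and exposed to each compound for 48 hours at five concentrations; endpoints were interpolated linearly between bracketing concentrations, or set to the highest concentration if not reached. The concentration for 50% growth inhibition is given as GI50.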 Calls of active or inactive are those of the source. Rule as the data show it: active = GI50 up to about 1.1 µM and inactive = higher.

Assays:
Test in all cases: DTP human tumour cell line panel, 48 h
HOP-92 = test system: HOP-92
A549 = test system: A549
RXF 393 = test system: RXF 393
SK-MEL-2 = test system: SK-MEL-2
RPMI-8226 = test system: RPMI-8226
UACC-62 = test system: UACC-62
Malme-3M = test system: Malme-3M
786-0 = test system: 786-0
SF-295 = test system: SF-295
SNB-19 = test system: SNB-19
MCF7 = test system: MCF7
IGROV-1 = test system: IGROV-1
TK-10 = test system: TK-10
Hs-578T = test system: Hs-578T
NCI-H522 = test system: NCI-H522
NCI-H226 = test system: NCI-H226
MDA-N = test system: MDA-N
CCRF-CEM = test system: CCRF-CEM
KM12 = test system: KM12
U-251 = test system: U-251
SW-620 = test system: SW-620
OVCAR-4 = test system: OVCAR-4
MDA-MB-231 = test system: MDA-MB-231
MDA-MB-435 = test system: MDA-MB-435
DU-145 = test system: DU-145
NCI-H23 = test system: NCI-H23
HCT-116 = test system: HCT-116
HOP-62 = test system: HOP-62
HT-29 = test system: HT-29
SF-539 = test system: SF-539
SK-MEL-5 = test system: SK-MEL-5
COLO 205 = test system: COLO 205
OVCAR-8 = test system: OVCAR-8
ACHN = test system: ACHN
OVCAR-5 = test system: OVCAR-5
CAKI-1 = test system: CAKI-1
HCT-15 = test system: HCT-15
SK-OV-3 = test system: SK-OV-3
HL-60 = test system: HL-60
K562 = test system: K562
UO-31 = test system: UO-31
SF-268 = test system: SF-268
SNB-75 = test system: SNB-75
OVCAR-3 = test system: OVCAR-3
PC-3 = test system: PC-3
BT-549 = test system: BT-549
EKVX = test system: EKVX
MOLT-4 = test system: MOLT-4
LOX IMVI = test system: LOX IMVI
NCI/ADR-RES = test system: NCI/ADR-RES
M14 = test system: M14
SN12C = test system: SN12C
A498 = test system: A498
SK-MEL-28 = test system: SK-MEL-28
T47D = test system: T47D

Measured: GI50

NC1C2C=CC(C2)C1C(=O)O (stereo not given)
> 100 µM: HCT-15
inactive: HOP-92 > 100 µM | A549 > 100 µM | RXF 393 > 100 µM | SK-MEL-2 > 100 µM | RPMI-8226 > 100 µM | UACC-62 > 100 µM | Malme-3M > 100 µM | 786-0 > 100 µM | SF-295 > 100 µM | SNB-19 > 100 µM | MCF7 > 100 µM | IGROV-1 > 100 µM | TK-10 > 100 µM | Hs-578T > 100 µM | NCI-H522 > 100 µM | NCI-H226 > 100 µM | MDA-N > 100 µM | CCRF-CEM > 100 µM | KM12 > 100 µM | U-251 > 100 µM | SW-620 > 100 µM | OVCAR-4 > 100 µM | MDA-MB-231 > 100 µM | MDA-MB-435 > 100 µM | DU-145 > 100 µM | NCI-H23 > 100 µM | HCT-116 > 100 µM | HOP-62 > 100 µM | HT-29 > 100 µM | SF-539 9.08 µM | SK-MEL-5 > 100 µM | COLO 205 > 100 µM | OVCAR-8 > 100 µM | ACHN > 100 µM | OVCAR-5 > 100 µM | CAKI-1 > 100 µM | SK-OV-3 > 100 µM | HL-60 > 100 µM | K562 > 100 µM | UO-31 > 100 µM | SF-268 > 100 µM | SNB-75 > 100 µM | OVCAR-3 > 100 µM | PC-3 > 100 µM | BT-549 > 100 µM | EKVX > 100 µM | MOLT-4 > 100 µM | LOX IMVI > 100 µM | NCI/ADR-RES > 100 µM | M14 > 100 µM | SN12C > 100 µM | A498 > 100 µM | SK-MEL-28 > 100 µM | T47D > 100 µM
